Here are results for three substances from US9144598B2, “Reverse thermal gels and their use in cell therapy” (University of Pittsburgh—Of the Commonwealth System of …, priority 2010, dated 2015).

One data set concerns SH-SY5Y. In words: 2D neuronal cell culture: cell attachment and neurite outgrowth. It counts as cell-based. The note with it: for neurite outgrowth without RA / neurite outgrowth with RA: 14-day culture; for neurite outgrowth with RA: 10 μM retinoic acid from day 7; for cell attachment on surface: 15% (wt) gel or laminin coated plate. The procedure:
Cells, SH-SY5Y (ATCC, CRL-2266), were cultured in DMEM/F12 (1:1) medium with 10% fetal bovine serum (FBS), and 1% antibiotics. The cells were incubated in a humidified atmosphere with 5% CO2 at 37° C. The medium was refreshed every three days until the cells reached 95% confluence. The cells were harvested from the petri dish by incubation in 1 ml of trypsin solution (0.25%) for 5 min, neutralizing with 5 ml of serum-supplemented medium, centrifugation and removal of supernatant. The cell pellets were resuspended in serum-supplemented medium and 5×10^3 cells was used immediately for 2D neuronal cell culture.
Fifty μl of each solution (15%, wt) of pure reverse thermal gel and IKVAVS-GEL was transferred into 96-well plate on 37° C. heating plate. After 5 min, cell suspension (5×10^3 cells) in 150 μl of medium was added on top of the gel. For a control, the same number of cell suspension in 200 μl of medium was transferred into laminin coated 96-well plate. A 100 μl of medium was refreshed every two days. The cell growth was examined on a microscope. After 7-day culture, 10 μM of retinoic acid (RA) was added and neurite outgrowth was monitored on a microscope.

In the next data set the test system is Sprague Dawley rats. The following applies: rat, in vivo, sc.
For data set [1] the following is noted: buffer.
Experimental: The storage modus (G′) of the polymer solutions in phosphate buffered saline (PBS) solution was measured by rheometer from 20° C. to 55° C.

No end group written: not given here.

Experimental for Sprague Dawley rats: In vivo biocompatibility was evaluated in Sprague Dawley rats.

Take laminin [reference compound]: in the data set with SH-SY5Y, the “neurite outgrowth without RA” value was “some short neurite outgrowth”; the “neurite outgrowth with RA” value was “much dense and longer neurite outgrowth”; the “cell attachment on surface” value is reported as “attached very well”.

Turning to “IKVAVS-GEL: IKVAVS (SEQ ID NO: 21) conjugated reverse thermal gel (also: conjugated to reverse thermal gel; listed as Homo sapiens)”, in the data set with SH-SY5Y, the “neurite outgrowth without RA” value is reported as “much better than that on pure reverse thermal gel”, the “neurite outgrowth with RA” value is listed as “much better than that on pure reverse thermal gel” and the “cell attachment on surface” value is “attached well”.

Take “poly(ethylene glycol)-poly(serinol hexamethylene urethane) [ESHU]”: the inflammatory response result in the data set on Sprague Dawley rats is recorded as “well tolerated inflammatory response”. In data set [1], the “temperature range in which it remained gel” value was 37-40 °C.
